From ChEMBL document CHEMBL5661980, “Discovery of OSI-906: a selective and orally efficacious dual inhibitor of the IGF-1 receptor and insulin receptor” (Future Med Chem, 2009)
“And” between values parts separate entries of the source, which are not always exact repeats. Equal values may be shown once. One block for each compound: values may come before it.

How the values were obtained:
[1] = Oral bioavailability in CD-1 mouse administered at 25 mg/kg measured after 1 to 24 hrs by HPLC-MS/MS analysis; format: ADME, organism-based; details: in vivo, time 1-24 hrs
[2] = Oral bioavailability in Sprague-Dawley rat administered at 20 mg/kg measured after 1 to 24 hrs by HPLC-MS/MS analysis; format: ADME, organism-based; details: in vivo, time 1-24 hrs
[3] = biological target: T1, Insulin-like growth factor 1 receptor (Homo sapiens, UniProt P08069); assay: Inhibition of human recombinant IGF-1 receptor expressed in mouse 3T3 cells treated for 15 mins by ELISA analysis; format: cell-based
[4] = Clearance in CD-1 mouse at 10 mg/kg, iv measured after 1 to 24 hrs by HPLC-MS/MS analysis; format: ADME, organism-based; details: in vivo, time 1-24 hrs
[5] = Cmax in Sprague-Dawley rat at 20 mg/kg, po measured after 1 to 24 hrs by HPLC-MS/MS analysis; format: ADME, organism-based; details: in vivo, time 1-24 hrs
[6] = Plasma concentration in Sprague-Dawley rat at 20 mg/kg, po measured after 24 hrs by HPLC-MS/MS analysis; format: ADME, organism-based
[7] = Microsomal stability in rat liver microsomes assessed as extraction ratio in presence of NADPH for 0 to 40 mins by LC-MS/MS analysis; format: ADME, Microsome; details: time 0-40 min, read-out: ERH
[8] = in vitro; details: mouse, liver microsomes
Description: Microsomal stability in mouse liver microsomes assessed as extraction ratio in presence of NADPH for 0 to 40 mins by LC-MS/MS analysis

[9] = Elimination half life in CD-1 mouse at 10 mg/kg, iv measured after 1 to 24 hrs by HPLC-MS/MS analysis; format: ADME, organism-based; details: in vivo, time 1-24 hrs, read-out: beta t1/2 (converted)
[10] = AUC (0 to infinity) in Sprague-Dawley rat at 20 mg/kg, po measured after 1 to 24 hrs by HPLC-MS/MS analysis; format: ADME, organism-based; details: in vivo, time 1-24 hrs
[11] = Elimination half life in Sprague-Dawley rat at 5 mg/kg, iv measured after 1 to 24 hrs by HPLC-MS/MS analysis; format: ADME, organism-based; details: in vivo, time 1-24 hrs, read-out: beta t1/2 (converted)
[12] = biological target: Cytochrome P450 3A4 (Homo sapiens, UniProt P08684); assay: Inhibition of CYP3A4 (unknown origin) using luciferin as substrate in presence of NADPH generating system incubated for 20 mins by luminescent method; format: ADME
[13] = Elimination half life in CD-1 mouse at 25 mg/kg, po measured after 1 to 24 hrs by HPLC-MS/MS analysis; format: ADME, organism-based; details: in vivo, time 1-24 hrs, read-out: beta t1/2 (converted)
[14] = Volume of distribution at steady state in CD-1 mouse at 10 mg/kg, iv measured after 1 to 24 hrs by HPLC-MS/MS analysis; format: ADME, organism-based; details: in vivo, time 1-24 hrs, read-out: Vdss
[15] = Clearance in Sprague-Dawley rat at 5 mg/kg, iv measured after 1 to 24 hrs by HPLC-MS/MS analysis; format: ADME, organism-based; details: in vivo, time 1-24 hrs
[16] = AUC (0 to infinity) in CD-1 mouse at 25 mg/kg, po measured after 1 to 24 hrs by HPLC-MS/MS analysis; format: ADME, organism-based; details: in vivo, time 1-24 hrs
[17] = biological target: T1, Insulin-like growth factor 1 receptor; assay: Inhibition of human recombinant IGF-1 receptor in presence of ATP by ELISA analysis
[18] = Plasma concentration in CD-1 mouse at 25 mg/kg, po measured after 24 hrs by HPLC-MS/MS analysis; format: ADME, organism-based
[19] = Volume of distribution at steady state in Sprague-Dawley rat at 5 mg/kg, iv measured after 1 to 24 hrs by HPLC-MS/MS analysis; format: ADME, organism-based; details: in vivo, time 1-24 hrs, read-out: Vdss
[20] = Elimination half life in Sprague-Dawley rat at 20 mg/kg, po measured after 1 to 24 hrs by HPLC-MS/MS analysis; format: ADME, organism-based; details: in vivo, time 1-24 hrs, read-out: beta t1/2 (converted)
[21] = in vitro; details: human, liver microsomes
Description: Microsomal stability in human liver microsomes assessed as extraction ratio in presence of NADPH for 0 to 40 mins by LC-MS/MS analysis

[22] = Microsomal stability in dog liver microsomes assessed as extraction ratio in presence of NADPH for 0 to 40 mins by LC-MS/MS analysis; format: ADME, Canis lupus familiaris, Microsome; details: time 0-40 min, read-out: ERH
[23] = Cmax in CD-1 mouse at 25 mg/kg, po measured after 1 to 24 hrs by HPLC-MS/MS analysis; format: ADME, organism-based; details: in vivo, time 1-24 hrs
[24] = Plasma concentration in athymic nu/nu CD-1 mouse at 100 mg/kg, po measured at 1 hr by HPLC - UV analysis; format: ADME, organism-based
[25] = Plasma concentration in athymic nu/nu CD-1 mouse at 100 mg/kg, po measured at 8 hrs by HPLC - UV analysis; format: ADME, organism-based
[26] = Plasma concentration in athymic nu/nu CD-1 mouse at 100 mg/kg, po measured at 4 hrs by HPLC - UV analysis; format: ADME, organism-based
[27] = Plasma concentration in athymic nu/nu CD-1 mouse at 100 mg/kg, po measured at 16 hrs by HPLC - UV analysis; format: ADME, organism-based
[28] = AUC (0 to infinity) in CD-1 mouse at 50 mg/kg, po measured after 1 to 24 hrs by HPLC-MS/MS analysis; format: ADME, organism-based; details: in vivo, time 1-24 hrs
[29] = Oral bioavailability in CD-1 mouse administered at 50 mg/kg measured after 1 to 24 hrs by HPLC-MS/MS analysis; format: ADME, organism-based; details: in vivo, time 1-24 hrs
[30] = Cmax in CD-1 mouse at 50 mg/kg, po measured after 1 to 24 hrs by HPLC-MS/MS analysis; format: ADME, organism-based; details: in vivo, time 1-24 hrs
[31] = Elimination half life in CD-1 mouse at 50 mg/kg, po measured after 1 to 24 hrs by HPLC-MS/MS analysis; format: ADME, organism-based; details: in vivo, time 1-24 hrs, read-out: beta t1/2 (converted)
[32] = Elimination half life in CD-1 mouse at 5 mg/kg, iv measured after 1 to 24 hrs by HPLC-MS/MS analysis; format: ADME, organism-based; details: in vivo, time 1-24 hrs, read-out: beta t1/2 (converted)
[33] = Volume of distribution at steady state in CD-1 mouse at 5 mg/kg, iv measured after 1 to 24 hrs by HPLC-MS/MS analysis; format: ADME, organism-based; details: in vivo, time 1-24 hrs, read-out: Vdss
[34] = Clearance in CD-1 mouse at 5 mg/kg, iv measured after 1 to 24 hrs by HPLC-MS/MS analysis; format: ADME, organism-based; details: in vivo, time 1-24 hrs

T1 sequence (P08069 31-736 limits assumed): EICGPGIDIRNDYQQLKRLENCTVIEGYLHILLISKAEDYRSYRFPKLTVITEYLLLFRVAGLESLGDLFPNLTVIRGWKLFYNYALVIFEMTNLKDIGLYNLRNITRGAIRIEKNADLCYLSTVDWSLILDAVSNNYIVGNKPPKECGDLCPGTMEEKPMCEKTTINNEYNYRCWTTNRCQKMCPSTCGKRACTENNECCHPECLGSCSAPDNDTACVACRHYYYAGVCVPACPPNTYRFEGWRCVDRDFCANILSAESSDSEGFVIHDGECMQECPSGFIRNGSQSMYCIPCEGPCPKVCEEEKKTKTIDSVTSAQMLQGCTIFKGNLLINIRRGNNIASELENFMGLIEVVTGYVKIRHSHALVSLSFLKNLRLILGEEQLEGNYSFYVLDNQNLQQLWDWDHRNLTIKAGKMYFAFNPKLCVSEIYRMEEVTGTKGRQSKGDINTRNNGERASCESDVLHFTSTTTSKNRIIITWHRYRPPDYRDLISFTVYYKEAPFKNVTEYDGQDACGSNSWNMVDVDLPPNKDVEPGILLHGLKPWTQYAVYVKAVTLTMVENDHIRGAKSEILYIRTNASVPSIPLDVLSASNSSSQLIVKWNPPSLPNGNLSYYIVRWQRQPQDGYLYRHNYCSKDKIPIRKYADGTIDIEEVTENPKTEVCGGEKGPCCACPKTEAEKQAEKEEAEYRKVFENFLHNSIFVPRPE
T1 sequence (P08069 741-1367 limits assumed): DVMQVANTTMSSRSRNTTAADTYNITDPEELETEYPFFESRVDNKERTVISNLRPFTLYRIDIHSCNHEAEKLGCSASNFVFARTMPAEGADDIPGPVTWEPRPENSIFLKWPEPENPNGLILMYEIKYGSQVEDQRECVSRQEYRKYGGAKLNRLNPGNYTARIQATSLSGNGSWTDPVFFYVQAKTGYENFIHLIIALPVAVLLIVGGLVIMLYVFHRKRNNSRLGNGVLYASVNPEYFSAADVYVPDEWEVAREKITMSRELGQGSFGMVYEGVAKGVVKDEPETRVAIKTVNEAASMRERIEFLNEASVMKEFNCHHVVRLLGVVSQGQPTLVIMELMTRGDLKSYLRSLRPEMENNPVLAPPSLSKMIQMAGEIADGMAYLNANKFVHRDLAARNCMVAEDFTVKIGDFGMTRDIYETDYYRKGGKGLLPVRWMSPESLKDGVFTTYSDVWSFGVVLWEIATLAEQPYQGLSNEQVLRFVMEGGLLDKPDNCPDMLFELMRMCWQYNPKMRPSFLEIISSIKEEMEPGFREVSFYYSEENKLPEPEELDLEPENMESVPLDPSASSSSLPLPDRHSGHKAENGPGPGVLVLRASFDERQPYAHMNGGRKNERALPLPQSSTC
Cytochrome P450 3A4, sequence (P08684 whole entry): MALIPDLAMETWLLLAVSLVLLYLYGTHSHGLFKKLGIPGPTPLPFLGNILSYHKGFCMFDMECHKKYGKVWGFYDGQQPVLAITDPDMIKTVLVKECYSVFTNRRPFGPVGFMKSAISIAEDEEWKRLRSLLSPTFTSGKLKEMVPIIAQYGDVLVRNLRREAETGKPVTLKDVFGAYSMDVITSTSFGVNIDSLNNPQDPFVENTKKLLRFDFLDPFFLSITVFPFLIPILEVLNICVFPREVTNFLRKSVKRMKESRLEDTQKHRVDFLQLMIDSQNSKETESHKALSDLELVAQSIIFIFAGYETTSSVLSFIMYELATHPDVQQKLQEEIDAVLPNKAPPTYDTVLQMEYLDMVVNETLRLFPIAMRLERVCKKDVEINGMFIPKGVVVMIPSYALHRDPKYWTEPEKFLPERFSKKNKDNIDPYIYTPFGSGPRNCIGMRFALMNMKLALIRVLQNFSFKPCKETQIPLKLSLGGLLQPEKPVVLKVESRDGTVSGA

bioavailability [1]: 100% | bioavailability [2]: 100% | IC50 [3]: 19 nM | clearance [4]: 19 mL/min/kg | Cmax [5]: 1350 nM | concentration at 24 h [6]: 740 nM | hepatic extraction ratio [7]: 0.21 | hepatic extraction ratio [8]: 0.53 | half-life [9]: 5 h | AUC(0-inf) [10]: 28700 ng·h/mL | half-life [11]: 20 h | IC50 [12]: 8300 nM | half-life [13]: 23.6 h | Vd [14]: 8 L/kg | clearance [15]: 16 mL/min/kg | AUC(0-inf) [16]: 34500 ng·h/mL | IC50 [17]: 24 nM | concentration at 24 h [18]: 1040 nM | Vd [19]: 21 L/kg | half-life [20]: 28.7 h | hepatic extraction ratio [21]: 0.59 | hepatic extraction ratio [22]: 0.5 | Cmax [23]: 2200 nM
SMILES: CN1CCN([C@H]2C[C@@H](c3nc(-c4ccc5ccc(-c6ccccc6)nc5c4)c4c(N)nccn43)C2)CC1

concentration at 1 h [24]: 4590 ng/mL and 11.3 µM | concentration at 8 h [25]: 4650 ng/mL and 11.4 µM | concentration at 4 h [26]: 3660 ng/mL and 8.99 µM | concentration at 16 h [27]: 2360 ng/mL and 5.8 µM
SMILES: Nc1nccn2c(C3CC(O)C3)nc(-c3ccc4ccc(-c5ccccc5)nc4c3)c12 (stereo not drawn)

IC50 [3]: 42 nM | AUC(0-inf) [28]: 52500 ng·h/mL | bioavailability [29]: 77% | Cmax [30]: 11400 nM
SMILES: Nc1nccn2c1c(-c1ccc3ccc(-c4ccccc4)nc3c1)nc2[C@H]1CC[C@H](C(N)=O)CC1

half-life [31]: 0.98 h | AUC(0-inf) [28]: 5170 ng·h/mL | IC50 [12]: 3300 nM | concentration at 1 h [24]: 3200 ng/mL and 8.19 µM | half-life [32]: 0.98 h | concentration at 8 h [25]: 3110 ng/mL and 7.95 µM | Vd [33]: 6.25 L/kg | bioavailability [29]: 56% | concentration at 4 h [26]: 1810 ng/mL and 4.62 µM | concentration at 16 h [27]: 1030 ng/mL and 2.64 µM | Cmax [30]: 2680 nM | clearance [34]: 90 mL/min/kg
SMILES: Nc1nccn2c(C3CCC3)nc(-c3ccc4ccc(-c5ccccc5)nc4c3)c12
